This is an account of results in patent US9745274B2, “Compound, organic cation transporter 3 detection agent, and organic cation transporter 3 activity inhibitor” (SHIN NIPPON BIOMEDICAL LABORATORIES, LTD., priority 2013, dated 2017).

The target in experiment [1] is T1, human organic cation transporter 3 (hOCT3) (Homo sapiens, UniProt O75751).
T1 construct: expressed in transfected cells; host or cells: HEK293
T1 sequence (O75751 1-556): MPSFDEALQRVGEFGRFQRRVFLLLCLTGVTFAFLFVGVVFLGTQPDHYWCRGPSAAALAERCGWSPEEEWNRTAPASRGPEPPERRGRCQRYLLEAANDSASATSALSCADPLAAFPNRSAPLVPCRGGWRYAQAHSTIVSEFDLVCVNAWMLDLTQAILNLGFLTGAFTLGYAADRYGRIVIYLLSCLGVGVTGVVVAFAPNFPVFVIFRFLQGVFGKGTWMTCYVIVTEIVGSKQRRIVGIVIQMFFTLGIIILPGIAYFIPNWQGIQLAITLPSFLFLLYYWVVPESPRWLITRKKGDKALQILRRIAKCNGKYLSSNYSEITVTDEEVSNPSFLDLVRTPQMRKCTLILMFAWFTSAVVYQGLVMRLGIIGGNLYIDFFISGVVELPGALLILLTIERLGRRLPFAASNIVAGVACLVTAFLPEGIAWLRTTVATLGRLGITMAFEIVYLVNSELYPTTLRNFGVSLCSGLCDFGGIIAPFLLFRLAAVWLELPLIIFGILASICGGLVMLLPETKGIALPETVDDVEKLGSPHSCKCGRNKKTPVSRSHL
In words: Histamine incorporation experiment in HEK293 cells expressing hOCT3 (OCT3 inhibition activity). The format is cell-based. The following applies: control curve; for IC80: HEK293.

Experiment [2] addresses T1, human organic cation transporter 3 (hOCT3). The description is as above. The following applies: for remaining activity at 10 µM / remaining activity at 30 µM: HEK293, 1 min, no inhibitor = 100%, read-out: Histamine Incorporation Rate to Control (%); for remaining activity at 10 µM / inhibition at 10 µM: Compound Concentration 10 μM; for inhibition at 10 µM / inhibition at 30 µM: HEK293, 100% minus histamine incorporation rate; for remaining activity at 30 µM / inhibition at 30 µM: Compound Concentration 30 μM; for remaining activity at 30 µM: [3H]histamine 100 nM, 1 minute. The format is cell-based. How it is done: In order to measure an activity that inhibits OCT3 from incorporating a substrate (OCT3 inhibition activity) for each compound, histamine incorporation experiments as described below were performed.
Histamine incorporation experiments were performed in accordance with a method disclosed in Br J Pharmacol. 2002; 136(6): 829-836. In the experiments, HEK293 cells were used. The HEK293 cell is a human embryonal renal cell strain expressing human organic cation transporter 3 (hOCT3). The HEK 293 cells were inoculated onto 24-well plates at 1.5×10^5 cells/well, and were cultivated overnight in a carbon dioxide incubator. Test substances were dissolved in 100% DMSO solution and then dissolved in HBSS-HEPES solution (buffer solution prepared by dissolving 9.7 g Hank's Balanced Salt, 1.4% sodium bicarbonate 25 mL, and 1M HEPES 25 mL in 940 mL ultra pure water, and by adjusting to pH7.4 with 1M sodium hydroxide). After removing culture media for cell culture, pretreatment was performed for 5 minutes with 1 mL HBSS-HEPES solution. Then, the test substance and [3H]histamine (final concentration 100 nM) were added to the cells and reacted for 1 minute at room temperature. After the reaction was completed, the reaction was stopped by ice-cooled HBSS-HEPES solution, extracellular fluid was aspirated by an aspirator, and then the cells were washed twice with HBSS-HEPES. After washing, the cells were dissolved in 0.5M sodium hydroxide solution. The amount of histamine in the cells was found by measuring a radioactivity in a cell lysis solution by a liquid scintillation counter. Protein content in the cells was measured by Lowry method (J Biol Chem. 1951; 193(1): 265-75) by using the cell lysis solution, and translated into histamine incorporation amount per protein content for each experiment. A histamine incorporation rate (%) in the presence of 30 μM of the test substance was calculated by regarding a histamine incorporation amount in a case of no incorporation inhibitor as 100% (control) of histamine incorporation rate. A value (%) obtained by subtracting the histamine incorporation rate from 100(%) was calculated as an OCT3 inhibition rate (%).
Note that a histamine incorporation rate (%) in the presence of 10 μM of the test substance was calculated by regarding a histamine incorporation amount in a case of no incorporation inhibitor as 100% (control) of histamine incorporation rate. A value (%) obtained by subtracting the histamine incorporation rate from 100(%) was calculated as an OCT3 inhibition rate (%). […]

The target of experiment [3] is T2, OCT3 (Homo sapiens, UniProt O75751).
T2 sequence (O75751 1-556): T1 sequence (O75751 1-556)
The following applies: Sata et al., J Pharmacol Exp Ther. 2005, cited from earlier work.

For experiment [4] the following is noted: various diagnostic methods in clinical trials, WO 01/93863; cited from earlier work.
The subject of experiment [5] is Male ddY-strain mice. In words: Forced swimming test (akinesis time). To be noted: low dose administered independently: imipramine 4 mg/kg or OCT3 inhibitor 0.25 μl/hr. The format is in vivo, mouse.
Excerpt: In the forced swimming test, forced swimming is loaded on a mouse or rat as a test animal in a test tank from which the mouse or rat cannot escape. Then, after an escape behavior of the test animal, an akinesis (a state in which the test animal is floating with only its face out over the surface of the water and without moving legs) is confirmed. When the test animal is put in the test tank again after 24 or more hours later, the akinesis is expressed earlier than the first test. Duration of the akinesis within a predetermined time period (generally about 5 minutes) is reproduced relatively accurately.
Specifically, a test is performed as follows.
Male ddY-strain mice (Japan SLC, Inc.) having body weights of 28 to 33 g are used for an experiment. […] In the first forced swimming test, all of the laboratory mice are made to swim in a glass cylinder (diameter 15.5 cm, depth 17 cm, depth of water 12 cm, temperature of water 25° C.) for 300 seconds, the akinesis time are measured, and the mice are divided into experimental groups (OCT3 inhibitor administration group, positive control group, and negative control group) so that average values of these groups are almost identical. […] After one week from the injection, the mice are made to swim in the cylinder again for 300 seconds, and the akinesis time is measured for each of the mice. […]

Where two headings read alike, the source gives them in different places.

Usually IC80 stands for the point of the concentration-response curve where the effect stands at 80%. Low values mean greater potency, high ones weaker potency. The IC50 is the concentration needed to halve the response being measured. Low readings indicate greater potency, high ones weaker potency. Broadly, the inhibition is the percentage by which the read-out fell short of the control. Low values mean a response near the control, high ones a response far below the control. In experiment [1], `NC(N)=Nc1nc(CSCCC(N)=NS(N)(=O)=O)cs1` [FAMOTIDINE, famotidine, reference compound] yielded an IC80 of 330 µM and an IC50 of 67.6 µM. In experiment [2], the remaining activity at 10 µM was 92.4% and the inhibition at 10 µM was determined as 7.6%. Also, in experiment [3] (listed as Famotidine), the “OCT3 inhibition activity (in words)” value was “strong OCT3 inhibition activity”. The “OCT3 inhibition activity (in words)” value in experiment [3] (listed as famotidine) is reported as “strong OCT3 activity inhibition action”. In experiment [4], the antidepressant activity result is recorded as “antidepressant activity is confirmed”.
Turning to `NC(N)=Nc1cccc(CSCC/C(N)=N/S(=O)(=O)C(F)(F)F)n1` [SR-2022], in experiment [1], the 80% effect level (IC80) was put at 30 µM and the IC50 amounted to 10.5 µM. In experiment [2], the remaining activity at 10 µM came out at 50%, the remaining activity at 30 µM is 21%, testing at 10 µM gave an inhibition of 50% and the inhibition at 30 µM was determined as 79%.
`CN(C)CCCN1c2ccccc2CCc2ccccc21` [imipramine]: in experiment [5], the “average of the akinesis time” value is on record as “about 200 seconds”.
In experiment [1], `Cc1nc(CCCCc2csc(N=C(N)N)n2)[nH]c(=O)c1CCc1ccccc1` [SR-2076] had an IC80 of 8 µM and an IC50 of 1.9 µM. In addition, in experiment [2], the remaining activity at 10 µM worked out at 14.8%, the remaining activity at 30 µM was found to be 11.8%, the inhibition at 10 µM amounted to 85.2% and testing at 30 µM gave an inhibition of 88.2%.
In experiment [1], `Cc1nc(CCSCc2ccnc(N=C(N)N)c2)[nH]c(=O)c1CCc1ccccc1` [SR-2219] showed an IC80 of 49 µM and an IC50 of 19 µM. In addition, in experiment [2], the remaining activity at 10 µM was 51.5%, the remaining activity at 30 µM is 22.6%, the inhibition at 10 µM turned out to be 48.5% and the inhibition at 30 µM came to 77.4%.
